The values that follow come from article PMC6102549, “Synthesis and Evaluation of C15 Triene Urushiol Derivatives as Potential Anticancer Agents and HDAC2 Inhibitor” (Molecules : A Journal of Synthetic Chemistry and Natural …, 2018).

The subject of one experiment is HepG2 cells. The experiment in a line: MTT assay, inhibition of proliferation of HepG2 cells. The format is cell-based, human. Particulars: for IC50: in vitro, 72 h. Here is the method:
(§1) As shown in Figure 1 and Table 1, compounds 1–16 were evaluated for their inhibitory effects on the proliferation of HepG2 and LO2 cells by MTT assay. […] It provided the experimental basis for the subsequent synthesis of attenuating and improving urushiol derivatives.
(§2) Detection of cell proliferation by MTT
(§3) MTT assay was used to determine the inhibitory effect of the sample on the proliferation of HepG2 cells. The tumor cells of logarithmic growth stage were inoculated with 3.5 * 103 / well in 96 well culture plate. 0.2 ml/pore system was cultured for 72 h with different concentrations of samples. Then 20μL(final concentration 0.5 mg / mL) of MTT were added to each pore for 4 h. The supernatant was carefully adsorbed, DMSO 0.15 mL was added to each pore, and oscillatory mixing was carried out. The absorbance (A) value at 490 nm wavelength was measured by enzyme labeling instrument. The inhibition rate of cell proliferation was calculated as follows: [(A value of negative control group-A value of blank group)-(A value of experimental group A value of blank group)] / (negative pair group A-A value of blank group) × 100.Statistical method. The statistical analysis was carried out by SPSS 17.0 statistical software. The measured data were described by x ±s, and the mean of the two samples was compared with t test (P < 0. 05).
(§4) Materials and methods: Main reagents and instruments […]
(§5) Full-range rainbow […]
(§6) The HepG2 cells were cultured in a saturated humidity incubator with 90% […]
(§7) Jiangsu Kaiji Biotechnology Co., Ltd. Main reagents and consumables Cell culture bottle […]
(§8) Cell proliferation measured by MTT
(§9) 1) the cells were digested and counted, the cell suspension was prepared by 3 x 10^4 /ml, and 100 micron L cell suspension was added to each hole in the 96 hole cell culture plate.
(§10) 2) 96 hole cell culture plate was placed in 37, 5%, CO2 culture box for 24 hours.
(§11) 3) use the medium to dilute the drug to the desired working fluid concentration, add 100 micron l per hole to the corresponding drug medium, and establish a negative control group and a positive control group (paclitaxel, 20ug/ml).
(§12) 4) 96 hole cell culture plate was placed at 37 ℃ and 5% CO2 incubator for 72 hours.
(§13) 5) 96 hole board for MTT staining, lambda =490nm, OD value determination; a. 20 μL MTT (5mg/ml) per hole was added to the culture box for 4 hours. b. discarding the supernatant, adding 150 μL DMSO for each hole, and gently mixing the […]
(§14) c. lambda =490nm, ELISA od readout per hole, the inhibition rate was calculated.
(§15) 6) calculate the inhibition rate of each group.The inhibition rate (%) = (negative control group OD value of experimental group / OD) negative control group OD x 100% […]
(§16) 7 check the machine and record the red fluorescence at the excitation wavelength of 488nm.
(§17) Detection of apoptosis by Annexin-V FITC/PI double staining
(§18) (1) inoculate the logarithmic growth cells into the six-hole plate. The next day, after the cells are adhered to the wall, according to the group . The culture medium containing medicine was added and the negative control group was set up at the same time
(§19) (2) after 72 hours of treatment, the cells were digested with 0.25% trypsin (excluding […]
(§20) (3) 5 × 10 ~ 5 cells were collected by PBS washing cells twice (centrifugation 2000rpm for 5
(Tetrazolium assays rely on reduction of a dye to a coloured formazan, in cell work by metabolically active cells.)

The test system of a further experiment is LO2 cells. The experiment in a line: MTT assay, toxic effect on normal liver cells LO2. Format: cell-based. Particulars: in vitro. The protocol:
as §1, §2, §3, §4, §5, §6, §7, §8, §9, §10, §11, §12, §13, §14, §15, §16, §17, §18, §19, §20

As for `C/C=C\C=C\C/C=C\CCCCCCCc1cccc2c1OB(c1ccnc(F)c1)O2` [Compound 6], the IC50 is more than 200 µM in the experiment on HepG2 cells (Homo sapiens, HepG2, 72 h) and more than 200 µM in the experiment with LO2 cells (Homo sapiens, L02, 72 h).
Consider `C/C=C\C=C\C/C=C\CCCCCCCc1ccc2c(C)cc(=O)oc2c1OB(O)c1ccnc(F)c1` [Compound 16], for which the IC50 in the experiment with HepG2 cells (Homo sapiens, HepG2, 72 h) is 151 µM; in the experiment on LO2 cells (Homo sapiens, L02, 72 h), more than 200 µM.
On the same counts, the results for `C#CCOc1c(O)cccc1CCCCCCC/C=C\C/C=C/C=C\C` [Compound 3] are more than 200 µM and more than 200 µM.
Consider `C/C=C\C=C\C/C=C\CCCCCCCc1cccc2c1OC(C)(C(C)Br)O2` (centres unmarked) [Compound 7], for which the half-maximal inhibitory concentration (IC50) in the experiment on HepG2 cells (Homo sapiens, HepG2, 72 h) is 89.7 µM; in the experiment on LO2 cells (Homo sapiens, L02, 72 h), more than 200 µM.
For the compound `C/C=C\C=C\C/C=C\CCCCCCCc1ccc2c(C)cc(=O)oc2c1O` [Compound 10, 8-hydroxy-4-methyl-7-((8Z,11E,13Z)-pentadeca-8,11,13-trien-1-yl)-2H-chro men-2-one], the 50% inhibitory concentration (IC50) was approximately 28 µM in the experiment with HepG2 cells (Homo sapiens, HepG2, 72 h); 28.8 µM with HepG2 cells; 180 µM in the experiment on LO2 cells (Homo sapiens, L02, 72 h); 198 µM with LO2 cells (72 h).
For the compound `C/C=C\C=C\C/C=C\CCCCCCCc1cccc2c1OB(c1ccncc1)O2` [Compound 5], the IC50 in the experiment with HepG2 cells (Homo sapiens, HepG2, 72 h) is 180 µM; in the experiment with LO2 cells (Homo sapiens, L02, 72 h) it was more than 200 µM.
As for `C/C=C\C=C\C/C=C\CCCCCCCc1cccc2c1OB(C(=O)C(F)(F)C(F)(F)F)O2` [Compound 2], the IC50 in the experiment with HepG2 cells (Homo sapiens, HepG2, 72 h) was 198 µM; with LO2 cells (Homo sapiens, L02, 72 h) it was more than 200 µM.
For `C/C=C\C=C\C/C=C\CCCCCCCc1ccc2c(C)cc(=O)oc2c1OB(O)c1ccncc1` [Compound 15], the IC50 with HepG2 cells (Homo sapiens, HepG2, 72 h) is 67 µM; with LO2 cells (Homo sapiens, L02, 72 h) it was more than 200 µM.
For `C/C=C\C=C\C/C=C\CCCCCCCc1ccc2c(C)cc(=O)oc2c1OB(O)c1ccccc1` [Compound 14], the IC50 in the experiment on HepG2 cells (Homo sapiens, HepG2, 72 h) was 78.7 µM; with LO2 cells (Homo sapiens, L02, 72 h) it was more than 200 µM.
For `C/C=C\C=C\C/C=C\CCCCCCCc1cccc2c1OB(c1ccccc1)O2` [Compound 4], in the experiment with HepG2 cells, the “inhibitory activity on HepG2 cells proliferation (in words)” value is recorded as “strong” and the half-inhibitory concentration (IC50) was 15.3 µM. This compound gave a concentration for half-maximal inhibition (IC50) in the experiment on LO2 cells (Homo sapiens, L02, 72 h) of 181 µM.
In the case of `C/C=C\C=C\C/C=C\CCCCCCCc1cccc(O)c1NS(C)(=O)=O` [Compound 9], the “inhibitory activity on HepG2 cells proliferation (in words)” value with HepG2 cells was “strong”. The IC50 in the experiment with HepG2 cells (Homo sapiens, HepG2, 72 h) was 15 µM; in the experiment with LO2 cells (Homo sapiens, L02, 72 h), 121 µM.

Broadly, the IC50 is the concentration that gives 50% inhibition.
